# According to article PMC6105827, “Antitrypanosomal 8-Hydroxy-Naphthyridines Are Chelators of Divalent Transition Metals” (Antimicrobial Agents and Chemotherapy, 2018):
# What was measured:
# [1] = tested on: L. donovani intramacrophage amastigotes; assay: L. donovani intramacrophage compound sensitivity assay; type: cell-based; conditions: Leishmania donovani, read-out: Intra-macrophage EC50
# Experimental: (§1) L. donovani intramacrophage ([7]), HepG2 ([55]), T. brucei ([56]), and L. donovani promastigote ([57]) compound sensitivity assays were carried out as described previously. Human HepG2 and THP-1 cells used in these assays were provided by the ATCC. Data were processed by using GRAFIT (version 5.0.4; Erithacus Software) and fitted to a 2-parameter equation to obtain the effective concentration inhibiting growth by 50% (EC50). Data are presented as the means of results from at least two independent experiments.
# [2] = tested on: Tb927.11.1910 knockdown bloodstream trypanosomes; assay: Drug sensitivity of Tb927.11.1910 RNAi knockdown trypanosomes; type: cell-based; conditions: Trypanosoma brucei, read-out: EC50, Tb927.11.1910 knockdown
# From the text: (§2) Stem-loop RNAi constructs were assembled as described previously ([54], [62]). PCR primers were designed by using RNAit software ([63]). For HL2 (Tb927.11.15050), primers HL2FW and HL2RV were used to generate a 533-bp gene fragment, and for HL3 (Tb927.11.1910), primers HL3FW and HL3RV were used to generate a 513-bp gene fragment. The accuracy of all assembled constructs was verified by sequencing. Assembled constructs were linearized by using AscI prior to transfection into bloodstream T. brucei 2T1 parasites ([62]). In addition to phleomycin (1 μg ml^−1), trypanosomes maintaining successfully integrated vectors were selected using hygromycin (2.5 μg ml^−1) and confirmed to be puromycin (2 μg ml^−1) resistant. To generate C-terminal 12×Myc tagging vectors for Tb927.11.15050 (Myc1) and Tb927.11.1910 (Myc2), primers Myc1FW and Myc1RV and primers Myc2FW and Myc2RV were used to generate 924-bp and 1,095-bp fragments, respectively. Fragments were inserted into the pNATx^12xMyc construct ([54]) via HindIII and XbaI restriction sites. The accuracy of the assembled constructs was verified by sequencing, and the constructs were linearized with the restriction endonuclease MfeI prior to transfection into the above-described HL2 and HL3 trypanosomes. Trypanosomes maintaining successfully integrated vectors were selected with blasticidin (1 μg ml^−1).
# [3] = tested on: L. donovani promastigotes; assay: Measurement of 8-HNT compound uptake by UPLC-MS/MS; type: cell-based, Leishmania donovani; conditions: 5 μM, 30 min
# Experimental: Triplicate samples of the culture (2 × 10^7 cells; 1 ml) were harvested by centrifugation at 16,000 × g for 5 min. The supernatant (200 μl) was collected from each centrifuged sample, transferred to a fresh Eppendorf tube, and terminated by the addition of 400 μl acetonitrile (supernatant fraction). The remaining supernatant was discarded, and acetonitrile (60 μl) was added to each pellet fraction. Finally, 400 μl acetonitrile was added to 200 μl of culture (equivalent of 4 × 10^6 cells) (total fraction). All fractions were then centrifuged at 16,000 × g for 10 min and diluted as required with MilliQ water. All samples were analyzed in triplicate on a Waters Acquity UPLC instrument coupled to a Waters micro TQs mass spectrometer. Chromatographic separation was achieved by using a Waters BEH (bridged ethylene hybrid) C18 column (1.7-μm particle size, 2.1 by 50 mm), with a flow rate of 0.6 ml min^−1, an injection volume of 0.2 μl, and the following 2-min gradient: 95% mobile phase A initially, with holding for 0.3 min before decreasing to 5% mobile phase A over the next minute and holding for a further 0.49 min before returning to 95% mobile phase A. Mobile phase A was water plus 0.1% formic acid, and mobile phase B was methanol plus 0.1% formic acid. […]
# HepG2 cells = assay: HepG2 compound sensitivity assay (with/without ZnCl2); conditions: Homo sapiens, HepG2, read-out: HepG2 EC50
# Experimental: The clonal Leishmania donovani cell line LdBOB (derived from MHOM/SD/62/1S-CL2D) was grown as promastigotes at 28°C, as described previously ([53]). Bloodstream-form T. brucei MiTat 1.2 clone 221a and its derived subline, 2T1, were cultured at 37°C in the presence of 5% CO2 in HMI9-T medium, as described previously ([54]). The human carcinoma HepG2 cell line was grown at 37°C with 5% CO2 in minimal Eagle's medium (MEM) with GlutaMAX (1×; Sigma-Aldrich), nonessential amino acids (Sigma-Aldrich), and 10% FBS. Human HepG2 and THP-1 cells used in this study were ethically sourced from the ATCC.
# as §1
# In the first instance, the maximum tolerated concentrations of ZnCl2, CaCl2, CuCl2, MgCl2, MnCl2, and FeCl2 were determined for each cell type. […] Standard drug sensitivity assays were carried out (as described above) for each cell type with compounds 1, 2, and 3 in the presence and absence of the maximum tolerated concentration of metal salt.
# [4] = tested on: Tb927.11.15050 knockdown bloodstream trypanosomes; assay: Drug sensitivity of Tb927.11.15050 RNAi knockdown trypanosomes; type: cell-based, Trypanosoma brucei; conditions: induced vs uninduced RNAi knockdown
# From the text: as §2
# [5] = Spectrophotometric UV-Vis titration and Job's plot of binding to divalent cations; type: physicochemical
# Experimental: UV-visible (UV-Vis) titrations were carried out essentially as described previously ([65], [66]). Aliquots of metal divalent cations (concentrated stocks were made initially in water and then diluted in methanol) were added to a fixed concentration of 50 μM 8-HNT compound in methanol. After each aliquot addition, the incubation mixture was left to stabilize for 5 min at 25°C prior to scanning. Wavelength scanning was carried out at between 260 and 510 nm by using a UV-2401 PC UV-Vis spectrophotometer (Shimadzu). For Job's plot analyses ([66]), the combined concentration of 8-HNT and cation was fixed at 200 μM, and only the molar ratio of cation versus 8-HNT compound varied. Changes of the absorption at 475, 390, and 375 nm were indicative of cation complex formation with compounds 1 to 3, respectively. Specific absorbance at these wavelengths was determined and plotted against the molar ratio of compound to cation to determine complex stoichiometry ([66]).
# THP-1 cells = assay: THP-1 cell sensitivity; type: cell-based; conditions: Homo sapiens
# Experimental: as §1
smiles,measurement,setting,value
Cc1nnc(-c2nc(NCc3ccc(Cl)cc3)c3cccnc3c2O)[nH]1 [Compound 1],EC50,[1],2100 nM
same,EC50,[2],600 ± 50 nM
same,Accumulation within cells relative to supernatant (equivalent Kp values),[3]; 4°C,29 ± 13 times
same,Accumulation within cells relative to supernatant (equivalent Kp values),[3]; 37°C,296 ± 69 times
same,EC50,HepG2 cells,10400 nM
same,Increase in EC50 on knockdown of Tb927.11.15050,[4],> 3 fold
same,Zn^2+ concentration at which binding is saturable,"[5]; 50 μM compound, absorbance at 475 nm",25 µM
same,"Job's plot intercept, molar fraction (compound to Zn^2+)","[5]; combined concentration 200 μM in methanol, absorbance 475/390/375 nm",0.34
same,EC50,THP-1 cells,> 50000 nM
